What was measured:
Type in all cases: cell-based
[1] = tested on: acetyl-histone H3 (Ac-HH3); assay: Ac-HH3 level in Jurkat cells, Western blot; conditions: 6 h
Jurkat cells [2] = assay: Cell cycle analysis, Jurkat; conditions: 48 h, control group 43.5%
Method: Jurkat cells (5 × 10^5) and HCT116 cells (3 × 10^5) were seeded on 6-well plates. The next day, cells were treated with indicated concentrations of compounds for 48 h. Cells were harvested after incubation, washed twice in cold PBS, centrifuged, and stained with a solution containing 20 μg/mL of Propidium iodide (PI) and 0.1% (v/v) Triton-X100 for 15 min at room temperature, followed by detection with NovoCyte Quanteon Flow Cytometer (Agilent Technologies, CA, USA).

HCT116 cells = assay: Apoptosis assay (Annexin V-FITC/PI flow cytometry), HCT116; set-up: Q1 (flow cytometry quadrant) / Q2 (flow cytometry quadrant) / Q3 (flow cytometry quadrant) / Q4 (flow cytometry quadrant): unit not given here; conditions: 48 h
Method: The cell apoptosis assay was performed using eBioscience Annexin V-FITC/PI Apoptosis Detection Kit (Thermo Fisher Scientific, Carlsbad, CA, USA). Jurkat cells (5 × 10^5) and HCT116 cells (3 × 10^5) were treated with different concentrations of test compounds for 24 or 48 h. Cells were harvested after incubation, washed twice in cold PBS, centrifuged, and resuspended in 1X annexin-binding buffer. According to the manufacturer’s instructions, cells were incubated with Annexin V and Propidium iodide (PI) sequentially. All samples were analyzed by NovoCyte Quanteon Flow Cytometer (Agilent Technologies, CA, USA).

[3] = tested on: acetyl-histone H3 (Ac-HH3); assay: Ac-HH3 level in HCT116 cells, Western blot; conditions: 6 h
IKZF3 = molecular target: T1, IKZF3 (Homo sapiens, UniProt Q9UKT9); assay: IKZF3 level in Jurkat cells, Western blot; conditions: 6 h
T1 construct: endogenous in cells; host or cells: Jurkat
T1 sequence (Q9UKT9 whole entry): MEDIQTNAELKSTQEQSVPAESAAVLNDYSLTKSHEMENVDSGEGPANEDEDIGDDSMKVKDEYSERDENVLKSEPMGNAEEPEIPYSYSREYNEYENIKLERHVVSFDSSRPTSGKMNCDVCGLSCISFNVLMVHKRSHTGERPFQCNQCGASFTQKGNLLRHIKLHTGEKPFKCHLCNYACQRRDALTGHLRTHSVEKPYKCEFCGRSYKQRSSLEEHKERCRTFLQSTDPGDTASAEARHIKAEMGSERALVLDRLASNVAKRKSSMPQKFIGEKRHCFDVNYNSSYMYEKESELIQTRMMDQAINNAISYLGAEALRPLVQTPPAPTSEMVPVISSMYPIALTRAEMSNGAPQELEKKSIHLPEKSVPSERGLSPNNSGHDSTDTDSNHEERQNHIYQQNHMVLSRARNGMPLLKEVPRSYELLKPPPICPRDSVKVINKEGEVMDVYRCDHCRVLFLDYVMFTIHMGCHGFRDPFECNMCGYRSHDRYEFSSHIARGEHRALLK

IKZF1 = molecular target: T2, IKZF1 (Homo sapiens, UniProt Q13422); assay: IKZF1 level in Jurkat cells, Western blot; conditions: 6 h
T2 construct: endogenous in cells; host or cells: Jurkat
T2 sequence (Q13422 whole entry): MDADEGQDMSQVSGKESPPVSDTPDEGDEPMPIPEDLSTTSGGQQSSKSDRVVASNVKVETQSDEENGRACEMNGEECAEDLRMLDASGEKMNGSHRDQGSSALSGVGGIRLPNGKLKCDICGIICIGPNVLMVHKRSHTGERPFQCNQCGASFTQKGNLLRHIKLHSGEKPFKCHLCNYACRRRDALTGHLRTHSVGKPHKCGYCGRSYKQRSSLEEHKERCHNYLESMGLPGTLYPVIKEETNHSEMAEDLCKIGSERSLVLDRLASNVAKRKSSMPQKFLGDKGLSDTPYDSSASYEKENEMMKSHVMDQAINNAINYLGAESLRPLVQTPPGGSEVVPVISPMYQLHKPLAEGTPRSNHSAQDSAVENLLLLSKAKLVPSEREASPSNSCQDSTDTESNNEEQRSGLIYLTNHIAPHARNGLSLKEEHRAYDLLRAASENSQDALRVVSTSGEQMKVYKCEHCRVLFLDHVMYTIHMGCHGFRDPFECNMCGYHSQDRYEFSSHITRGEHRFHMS

Jurkat cells [4] = assay: Lipid peroxidation detection (BODIPY 581/591 C11), Jurkat; conditions: 10 μM, 24 h
Method: Jurkat cells (5 × 10^5), HCT116 cells (3 × 10^5) and THP-1 cells (5 × 10^5) were seeded on 6-well plates. The next day, cells were treated with indicated concentrations of compounds for 24 or 48 h. Then, cells were stained with 1.3 μM of BODIPY 581/591 C11 (Invitrogen, D3861) for another 1 h at 37 °C. Later, cells were harvested and washed three times with ice-cold PBS, followed by resuspended in FACS buffer (1% BSA in PBS). Lipid peroxidation was determined by NovoCyte Quanteon Flow Cytometer (Agilent Technologies, CA, USA).

## CCCCCCNNC(=O)c1ccc(CNC(=O)CN2CCC(c3ccc(NC4CCC(=O)NC4=O)cc3)CC2)cc1 (stereo not shown) [Z16, 2-(4-(4-((2,6-Dioxopiperidin-3-yl)amino)phenyl)piperidin-1-yl)-N-(4-(2-hexylhydrazine-1-carbonyl)benzyl)acetamide]
[1]
  level of Ac-HH3 at 1 μM (in words): significantly increase
Jurkat cells [2]; 0.13 μM
  proportion of cells at G0/G1 phase: 48.4%
Jurkat cells [2]; 0.37 μM
  proportion of cells at G0/G1 phase: 52.2%
Jurkat cells [2]; 1.1 μM
  proportion of cells at G0/G1 phase: 61%
Jurkat cells [2]; 3.3 μM
  proportion of cells at G0/G1 phase: 68.2%
HCT116 cells; 1.1 μM
  Q1 (flow cytometry quadrant): 4.38
  Q2 (flow cytometry quadrant): 5.93
  Q3 (flow cytometry quadrant): 10.3
  Q4 (flow cytometry quadrant): 79.4
HCT116 cells; 3.3 μM
  Q1 (flow cytometry quadrant): 2.37
  Q2 (flow cytometry quadrant): 32.3
  Q3 (flow cytometry quadrant): 44.6
  Q4 (flow cytometry quadrant): 20.7
  apoptosis induced: over 70%
HCT116 cells; 10 μM
  Q1 (flow cytometry quadrant): 2.80
  Q2 (flow cytometry quadrant): 57.3
  Q3 (flow cytometry quadrant): 24.9
  Q4 (flow cytometry quadrant): 15.1
[3]
  concentration at which increased acetylation of histone H3 started: 40 nM
IKZF3
  intracellular level of IKZF3 (in words): did not significantly affect
IKZF1
  intracellular level of IKZF1 (in words): did not significantly affect
Jurkat cells [4]
  lipid peroxidation induced: over 40%

Source: PMC11345830, “Exploration of Hydrazide-Based HDAC8 PROTACs for the Treatment of Hematological Malignancies and Solid Tumors” (Journal of Medicinal Chemistry, 2024)
